± gives the expanded uncertainty stated by the source.
Assay: activity coefficient (dimensionless); of the first substance listed, at infinite dilution; xn = mol fraction of the nth substance listed
Conditions: 101 kPa, Liquid, Chromatography, x1 = 0

CC(=O)C(C)C [3-methyl-2-butanone] + CCOS(=O)(=O)[O-].CC[n+]1cccc(C)c1
activity coefficient (333.2 K): 4.51 ± 0.21
activity coefficient (343.15 K): 4.62 ± 0.21
activity coefficient (353.09 K): 4.73 ± 0.22
activity coefficient (363.06 K): 4.79 ± 0.22
activity coefficient (372.99 K): 4.95 ± 0.23

CC(=O)CC(C)C [4-methylpentan-2-one] + CCOS(=O)(=O)[O-].CC[n+]1cccc(C)c1
activity coefficient (333.2 K): 6.97 ± 0.32
activity coefficient (343.15 K): 6.99 ± 0.32
activity coefficient (353.08 K): 7.03 ± 0.32
activity coefficient (363.06 K): 7.05 ± 0.32
activity coefficient (372.99 K): 7.12 ± 0.33

CC(C)=O [acetone] + CCOS(=O)(=O)[O-].CC[n+]1cccc(C)c1
activity coefficient (323.24 K): 1.78 ± 0.08
activity coefficient (333.19 K): 1.8 ± 0.08
activity coefficient (343.16 K): 1.84 ± 0.08
activity coefficient (353.11 K): 1.88 ± 0.08
activity coefficient (363.08 K): 1.92 ± 0.08
activity coefficient (372.99 K): 1.98 ± 0.09

CCCCO [butan-1-ol] + CCOS(=O)(=O)[O-].CC[n+]1cccc(C)c1
activity coefficient (353.1 K): 1.13 ± 0.03
activity coefficient (363.06 K): 1.1 ± 0.03
activity coefficient (373 K): 1.08 ± 0.03

CCC(C)O (stereo not given) [butan-2-ol] + CCOS(=O)(=O)[O-].CC[n+]1cccc(C)c1
activity coefficient (333.19 K): 1.27 ± 0.04
activity coefficient (343.14 K): 1.25 ± 0.04
activity coefficient (353.1 K): 1.24 ± 0.04
activity coefficient (363.05 K): 1.23 ± 0.04
activity coefficient (373 K): 1.23 ± 0.04

CCC(C)=O [butanone] + CCOS(=O)(=O)[O-].CC[n+]1cccc(C)c1
activity coefficient (323.25 K): 2.7 ± 0.12
activity coefficient (333.2 K): 2.74 ± 0.12
activity coefficient (343.16 K): 2.78 ± 0.13
activity coefficient (353.1 K): 2.84 ± 0.13
activity coefficient (363.07 K): 2.88 ± 0.13
activity coefficient (372.99 K): 2.95 ± 0.13

CCO [ethanol] + CCOS(=O)(=O)[O-].CC[n+]1cccc(C)c1
activity coefficient (333.18 K): 0.6 ± 0.03
activity coefficient (343.13 K): 0.59 ± 0.03
activity coefficient (353.1 K): 0.58 ± 0.03
activity coefficient (363.09 K): 0.58 ± 0.03
activity coefficient (373.01 K): 0.57 ± 0.03

CO [methanol] + CCOS(=O)(=O)[O-].CC[n+]1cccc(C)c1
activity coefficient (323.26 K): 0.32 ± 0.04
activity coefficient (333.2 K): 0.33 ± 0.04
activity coefficient (343.15 K): 0.33 ± 0.04
activity coefficient (353.11 K): 0.33 ± 0.04
activity coefficient (363.07 K): 0.33 ± 0.04
activity coefficient (373 K): 0.33 ± 0.04

CCCCCO [pentan-1-ol] + CCOS(=O)(=O)[O-].CC[n+]1cccc(C)c1
activity coefficient (353.09 K): 1.66 ± 0.07
activity coefficient (363.05 K): 1.59 ± 0.06
activity coefficient (373.01 K): 1.52 ± 0.06

CCCC(C)=O [pentan-2-one] + CCOS(=O)(=O)[O-].CC[n+]1cccc(C)c1
activity coefficient (333.2 K): 4.35 ± 0.2
activity coefficient (343.15 K): 4.38 ± 0.2
activity coefficient (353.12 K): 4.44 ± 0.2
activity coefficient (363.05 K): 4.46 ± 0.2
activity coefficient (372.99 K): 4.52 ± 0.21

CCCO [propan-1-ol] + CCOS(=O)(=O)[O-].CC[n+]1cccc(C)c1
activity coefficient (333.18 K): 0.81 ± 0.03
activity coefficient (343.13 K): 0.8 ± 0.03
activity coefficient (353.1 K): 0.8 ± 0.03
activity coefficient (363.06 K): 0.79 ± 0.03
activity coefficient (373 K): 0.78 ± 0.03

CC(C)O [propan-2-ol] + CCOS(=O)(=O)[O-].CC[n+]1cccc(C)c1
activity coefficient (323.24 K): 1 ± 0.03
activity coefficient (333.19 K): 0.97 ± 0.03
activity coefficient (343.14 K): 0.96 ± 0.03
activity coefficient (353.09 K): 0.94 ± 0.03
activity coefficient (363.06 K): 0.93 ± 0.03
activity coefficient (373 K): 0.92 ± 0.03

Source: the NIST ThermoML archive (doi:10.1016/j.fluid.2015.09.003)
